# In patent publication US20260174829A1, “METHODS OF REDUCING TYPE 2 CYTOKINE-MEDIATED INFLAMMATION USING NEUROMEDIN PEPTIDES” (Rutgers, The State University of New Jersey, priority 2018, published 2026):
# How the values were obtained:
# Type in all cases: cell-based, mouse
# [1] = system: TH2 cells; assay: Anti-CD3/anti-CD28 stimulated lymph node cells (day 7 post-Nb), IL-5/IL-13 ELISA; settings: LN cells day 7 post-Nb, anti-CD3 and anti-CD28, 48 hours, vs media control
# Protocol: FIGS. 7A-7I. Nmb treatment is sufficient to suppress allergic airway inflammation. Mice challenged with papain were treated with PBS or Nmb (i.t.) and (A) Lung ILC2s, (B) IL-5+ and IL-13+ ILC2s, and (C) eosinophils were evaluated. […] Mesenteric lymph nodes (MLNs) were isolated on day 7 post-Nb and single cells suspensions were treated with anti-CD3 and anti-CD28 in the presence or absence of Nmb for 48 hours and (E), IL-5 and (F) IL-13 were quantified in cell-free supernatants by ELISA. (F-I), Modified versions of Nmb (see Table 2) were tested for their ability to alter IL-5 and IL-13 production from anti-CD3 and anti-CD28 MLN cells isolated on day 7 post-Nb. P values were determined by two-tailed Student's t-tests. Blue asterisks represent comparisons between media treated controls and native Nmb. Red asterisks represent comparisons between media treated controls and modified version of Nmb as described in Table 2. (*,p<0.05), (**,p<0.01), (***,p<0.001) or (F-I).
# FIGS. 8A-8B. Mesenteric lymph nodes (MLNs) were isolated on day 7 post-Nb and single cells suspensions were treated with anti-CD3 and anti-CD28 in the presence or absence of native Nmb or modified versions of the peptide for 48 hours and (A), IL-5 and (B) IL-13 were quantified in cell-free supernatants by ELISA. P values were determined by two-tailed Student's t-tests. Blue asterisks represent comparisons between media treated controls and native Nmb. Red asterisks represent comparisons between media treated controls and modified version of Nmb as described in Table 2. (*,p<0.05), (**,p<0.01), (***,p<0.001).
# At the time points evaluated post-Nb, the majority of the type 2 cytokines are ILC2-derived (14) and any effects Nmb is having on TH2 cell responses may be difficult to detect. To address this, lung-draining LNs were isolated on day 7 post-Nb and stimulated with anti-CD3 and -CD28 to activate T cells in both the presence of absence of recombinant Nmb. LN cells treated with anti-CD3 and -CD28 produced increased amounts of IL-5, and IL-13 (FIGS. 7D, 7E).
# Thus, Nmb can be employed to reduce type 2 cytokine-mediated inflammation. Native Nmb is a 10-mer peptide (SEQ ID NO: 1) that operates via its ability to bind the Nmb receptor (15). This example describes the results of an alanine scan to systematically replace various residues of the Nmb with alanine (Table 2) and the resulting ability of the variant Nmb peptides to inhibit type 2 cytokine production by TH2 cells. Further, caps were added to the native form of Nmb (SEQ ID NO: 1) and its bioactivity monitored (FIG. 5A).
# [2] = system: NMBR expression by ILC2s; assay: NMBR expression by cultured lung ILC2s, flow cytometry; settings: ILC2s day 7 post-Nb, survival and/or activating cytokines, day 4 post-culture
# Excerpt: FIG. 9. Basophils regulate NMBR expression. ILC2s were sort-purified from the lung of Nb-infected mice (day 7) and stimulated with survival cytokines (IL-7 and IL-2) and also with activated basophils, IL-4 or IL-33 overnight. NMBR expression was monitored by flow cytometric analysis post-culture. Data are presented as […] mean fluorescent intensity (GMFI). Statistical comparisons were done using a Student's t-test.
# FIG. 14. Prostaglandin E2 upregulates expression of NMBR on lymphocytes. Lung ILC2s were sort-purified from the lungs of mice on day 7 post-Nb and cultured with a combination of survival cytokines (IL-2 and IL-7) and/or activating cytokines (IL-25 and IL-33). In addition, cultures were treated with NMB or prostaglandin E2 (PGE2) and the expression of NMBR was measured by flow cytometric analysis on day 4 post-culture. Statistical analysis was performed using a student's t-test. Negative NMBR staining as determined by an isotype control antibody is also shown (Isot).
# NMBR expression by lung ILC2s was reduced when basophils are depleted following an Nb infection. To determine whether basophils directly mediate expression of NMBR or whether they operate through intermediate pathways, ILC2s were sort-purified from the lungs of Nb-infected mice (day 7) and cultured with the survival cytokines IL-2 and IL-7. Additionally, the ILC2s were cultured with activated basophils, IL-4, or IL-33 overnight. NMBR expression was subsequently monitored by flow cytometric analysis post-culture.
# To better determine the mechanisms through which basophils regulate expression of NMBR on lymphocytes, ILC2s were cultured with a combination of survival and activating cytokines in the presence or absence of NMB or prostaglandin E2 (PGE2).
# [3] = system: ILC2s; assay: RNA sequencing of ILC2s cultured overnight with or without Nmb; settings: gene expression, NMB treated vs untreated ILC2s
# Protocol: To gain further insight into how NMB might alter lymphocyte activation, ILC2s were sort-purified from the lungs of Nb-infected mice and cultured overnight with survival cytokines (IL-2, IL-7), with or without Nmb. Then, gene expression was evaluated by RNA sequencing analysis. […] This allowed for identification of NMB signaling pathways.
substance,measurement,setting,value
H2N-GNLWATGHFM-amide [Nmb],IL-5 production from activated TH2 cells,[1],significantly reduced
same,IL-13 production from activated TH2 cells,[1],significantly reduced
same,IL-5 production from activated TH2 cells,[1]; listed as Native Nmb,significantly reduce
same,IL-5 production from activated TH2 cells,[1]; listed as native Nmb,sufficient to reduce
same,IL-13 production from activated TH2 cells,[1]; listed as native Nmb,sufficient to reduce
same,NMBR expression by ILC2s,[2],failed to upregulate
same,Fold change Gm10031,[3],−6.203
same,Fold change Gm14288,[3],−25.43
same,Fold change Hgs_2,[3],−1.893
same,Fold change Ighg1,[3],253.6
same,Fold change Ighg2b,[3],276
same,Fold change Igkv1-135,[3],47.49
same,Fold change Igkv8-28,[3],43.8
same,Fold change Igkv17-127,[3],800.9
same,Fold change Il1b,[3],3.263
same,Fold change Klra7,[3],−1.984
same,Fold change Ly6c2,[3],−2.369
same,Fold change Mcpt2,[3],−11.86
same,Fold change Nkg7,[3],−1.895
same,Fold change P2rx7,[3],−2.149
same,Fold change Serpinb2,[3],5.696
same,Fold change Sprr2a2,[3],37.85
same,Fold change Tsix,[3],2.833
same,Fold change Xist,[3],3.077
